What was measured:
[1] = system: heat-treated human liver microsomes (Homo sapiens); assay: Enzyme kinetics in heat-treated HLM (FMO inactivation); type: in vitro ADME; conditions: heated vs non-heated control HLM
Description: (§1) In vitro incubations were carried out in 100‐mM potassium phosphate buffer (pH 7.4) and 5‐mM MgCl2 with a total volume of 200 µL. Substrate and either human liver microsomes (HLM, BD Biosciences, mixed gender pool of n = 50) or recombinant human enzymes (BD Biosciences) were added and pre‐incubated for 3 minutes at 37°C. The reaction was started by addition of a fresh solution of NADPH (1 mmol/L final concentration). The samples were incubated at 37°C with agitation of 500 rpm. For incubations with CYP2A6, CYP2C9, CYP2C18, and CYP4A11, the phosphate buffer was replaced by TRIS buffer (100 mmol/L, pH 7.4) and for flavin‐containing monooxygenases (FMOs), a glycine buffer (50 mM, pH 9.5) was used.
(§2) The enzymatic reaction was stopped and the protein was precipitated by addition of an equal volume of methanol. After 30 min at −80°C, the samples were centrifuged at 30'000 x g for 15 min. The supernatant was withdrawn. Aliquots were analyzed by LSC and the supernatant was diluted with water to obtain a final solution containing less than 20% of the organic solvent. For samples of low substrate concentration, supernatants were evaporated to dryness under nitrogen, then re‐suspended in water containing less than 20% of methanol. Samples were analyzed by HPLC combined with radiodetection. […]

[2] = target: heat-treated human liver microsomes (Homo sapiens, UniProt P08684); assay: as above; type: in vitro ADME; conditions: human, microsomes
Sequence of heat-treated human liver microsomes (P08684 2-503): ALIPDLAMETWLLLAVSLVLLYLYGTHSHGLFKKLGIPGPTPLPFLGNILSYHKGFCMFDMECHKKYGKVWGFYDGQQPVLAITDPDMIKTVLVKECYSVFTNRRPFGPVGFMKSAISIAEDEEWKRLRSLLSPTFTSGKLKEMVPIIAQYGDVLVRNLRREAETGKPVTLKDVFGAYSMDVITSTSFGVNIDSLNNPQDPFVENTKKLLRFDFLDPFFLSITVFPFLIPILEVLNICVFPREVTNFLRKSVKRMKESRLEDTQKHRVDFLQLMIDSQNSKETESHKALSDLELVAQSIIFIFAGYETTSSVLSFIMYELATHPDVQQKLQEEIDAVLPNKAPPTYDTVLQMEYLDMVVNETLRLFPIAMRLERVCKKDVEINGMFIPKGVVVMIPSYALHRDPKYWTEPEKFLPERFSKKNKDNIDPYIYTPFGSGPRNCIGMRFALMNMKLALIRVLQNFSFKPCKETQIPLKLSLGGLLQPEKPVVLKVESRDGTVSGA
Description: as §1, §2

[3] = system: hepatic P450 isoenzymes (total); assay: Biotransformation by a panel of 17 recombinant human CYPs and three FMOs; type: in vitro ADME; conditions: human, recombinant human CYPs, scaled to human liver microsomes, pH 7.4; sum over CYPs, based on recombinant enzyme data; read-out: Rel.Clint,u in HLM, total of hepatic P450 isoenzymes
Description: as §1
(§3) The enzymatic reaction was stopped and the protein was precipitated by addition of an equal volume of methanol. After 30 min at −80°C, the samples were centrifuged at 30'000 x g for 15 min. The supernatant was withdrawn. Aliquots were analyzed by LSC and the supernatant was diluted with water to obtain a final solution containing less than 20% of the organic solvent. For samples of low substrate concentration, supernatants were evaporated to dryness under nitrogen, then re‐suspended in water containing less than 20% of methanol. Samples were analyzed by HPLC combined with radiodetection.
(§4) The relative contribution of CYP enzymes to oxidative hepatic metabolism was determined using their Clint values multiplied by the unbound fraction in microsomes and their abundances in human liver microsomes. ^15 Among the hepatic P450 enzymes, CYP3A4 contributed predominantly (97%) to metabolism in human liver microsomes (Table 1) with negligible fraction metabolized by CYP1A2 (1.1%), CYP2J2 (0.8%), and CYP3A5 (1.2%).

[4] = system: recombinant human CYPs and FMOs; assay: as above; type: in vitro ADME
Description: as §1, §3, §4

[5] = Rat ADME study: excretion, mass balance, metabolite profiling with radiolabeled ribociclib; type: in vivo
Description: ADME studies (including QWBA in pigmented and non‐pigmented rats) using radiolabeled ribociclib were conducted in rat and dog. Relevant institutional and national guides for the care and use of laboratory animals were followed.
Metabolite profiling was conducted on plasma, urine, bile, and feces samples in the rat and dog ADME studies, and further metabolite profiling on plasma and milk was conducted in a dedicated rat milk excretion study.
Plasma samples obtained from these studies were extracted with equal volumes of acetonitrile. Additional extractions of the protein pellet with acetonitrile and/or acetone were conducted as needed to maximize radioactivity recovery. Feces samples were initially extracted with two to four volumes of acetonitrile. Additional extractions of the pellet following centrifugation and removal of supernatant were conducted with acetonitrile and/or acetone as needed to maximize radioactivity recovery. Urine and bile samples were analyzed directly following centrifugation. Radioactivity recoveries following the centrifugation step were measured by LSC. Milk samples were extracted with two volumes of acetonitrile, following centrifugation and removal of supernatant, the pellets were re‐suspended in 100 µL of water and re‐extracted with 200 µL acetonitrile.
Metabolite profiling in the ADME studies was conducted using liquid chromatography‐mass spectrometry. Radioactivity profiles were generated by diversion of the majority of the post‐column flow into 96‐well yttrium silicate scintillation‐coated plates (Deepwell Lumaplates; Perkin Elmer Life and Analytical Sciences Inc), by means of Gilson FC204 fraction collectors (Gilson). Metabolites were identified by mass spectrometry (Waters QTOF operating under MassLynx 4.1) and, where feasible, by comparison with authentic reference standards.

CYP3A5 = target: T1, CYP3A5 (Homo sapiens, UniProt P20815); assay: Enzyme kinetics with recombinant CYP3A5 and scaling to HLM; type: in vitro ADME
T1 construct: purchased BD Biosciences
T1 sequence (P20815 whole entry): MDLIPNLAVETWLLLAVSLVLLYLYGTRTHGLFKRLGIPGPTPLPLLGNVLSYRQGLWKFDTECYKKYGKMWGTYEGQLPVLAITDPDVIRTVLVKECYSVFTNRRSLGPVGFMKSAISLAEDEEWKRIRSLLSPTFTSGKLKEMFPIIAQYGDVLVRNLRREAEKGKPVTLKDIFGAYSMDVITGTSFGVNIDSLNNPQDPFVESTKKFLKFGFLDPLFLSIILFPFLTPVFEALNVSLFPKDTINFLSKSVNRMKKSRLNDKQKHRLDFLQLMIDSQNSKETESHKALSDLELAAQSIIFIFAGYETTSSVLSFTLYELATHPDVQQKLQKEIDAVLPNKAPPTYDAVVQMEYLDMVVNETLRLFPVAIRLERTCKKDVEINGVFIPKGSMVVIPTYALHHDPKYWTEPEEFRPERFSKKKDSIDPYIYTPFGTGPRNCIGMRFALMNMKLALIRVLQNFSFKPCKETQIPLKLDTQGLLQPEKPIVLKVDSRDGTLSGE
Description: as §1, §2

[6] = design: method as in earlier work; conditions: humans, total of central and peripheral volume; ref 22 (Lu et al, manuscript submitted); cited from earlier work
[7] = rat, oral dosing of radiolabeled ribociclib

Sequence of heat-treated human liver microsomes (Homo sapiens) (P08684 2-503): as the sequence (P08684 2-503) above

CN(C)C(=O)c1cc2cnc(Nc3ccc(N4CCNCC4)cn3)nc2n1C1CCCC1 [ribociclib, Ribociclib]
FMO metabolism as share of intrinsic clearance in HLM [1]: about 15% | Ki at 0.25 h [2]: 328 µM | microsomal CLint [3]: 49.2 µL/min/mg | turnover by recombinant enzymes ([4]; CYP1A2, CYP3A5, FMO3, and FMO5, 0.75 and 20 µmol/L, 15 min): Low metabolic activities | turnover by recombinant enzymes ([4]; CYP1B1, CYP2A6, CYP2B6, CYP2C8, CYP2C9, CYP2C18, CYP2C19, CYP2D6, CYP2E1, CYP4A11, and CYP4F2): No metabolic activities were detected | turnover by recombinant enzymes ([4]; CYP3A4, CYP2J2, CYP1A1, FMO1, and FM03, 0.75 and 20 µmol/L, 15 min): high turnover | Recovery of radioactivity in mass balance study ([5]; rat): approximately 90% | Absorption ([5]; rat ADME study, derived from AUC of total radiolabeled components after i.v. and p.o. dosing): 66% | dose eliminated in bile (radioactivity) ([5]; rat, i.v.): 61.4 % of dose | ribociclib in feces of bile duct-cannulated rats ([5]; rat, i.v.): 8 % of the dose | unchanged ribociclib recovered in bile ([5]; rat, i.v.): 1 % of the dose | radioactivity found in feces [5, 7]: 84.0% | radioactivity found in urine [5, 7]: 5.9% | ribociclib in feces ([5]; rat, p.o.): 22.4 % of the oral dose | unchanged ribociclib in urine ([5]; rat, p.o.): 2.7 % of the dose | fm,CYP (CYP3A5; CYP3A5, share of total CYP-mediated metabolism in HLM): 1.2% | fumic (CYP3A5; CYP3A5 incubation): 0.87 | apparent volume of distribution at steady state [6]: 1090 L

From PMC7287031 (Pharmacology Research & Perspectives, 2020)
